Measured values reported in patent US20070186358A1, “Concentrated optical brightener solutions” (priority 2004, published 2007).

Tests used:
[1] = Storage stability of concentrated aqueous solution (precipitation at 5° C.); assay type: physicochemical; details: aqueous solution of sodium salt, 0.330 mol/kg, 2.0% sodium chloride, no solubilizing agent; 2 weeks at 5° C.
Method: (§1) A solution of 21.3 parts aniline-2,5-disulphonic acid and 6.7 parts sodium hydroxide in 30 parts water is added to a stirred suspension of 15.5 parts cyanuric chloride in 50 parts ice water. The pH is kept at 6 by the dropwise addition of 30% sodium hydroxide. The mixture is stirred below 10° C. until primary aromatic amine groups can no longer be detected by the diazo reaction. A solution of 14.8 parts 4,4′-diaminostilbene-2,2′-disulphonic acid and 3.2 parts sodium hydroxide in 20 parts water is then added, the pH is adjusted to between 6.5 and 7.5 by the addition of 30% sodium hydroxide and the mixture is stirred at 30° C. until a negative diazo reaction is obtained. A solution of 12.2 parts L-aspartic acid in 22.9 parts 16% sodium hydoxide is added, and the mixture is heated at reflux for 6 hours, the pH being kept at 7.5 to 8.5 by the addition of 30% sodium hydroxide. The aqueous solution so-formed of (2) in the form of its sodium salt, which is approximately 0.167 mol/kg in concentration, is desalinated by membrane filtration and concentrated to 0.330 mol/kg (50% by weight).
(§2) An aqueous solution of (3) in the form of its sodium salt at a concentration of 0.330 mol/kg (51% by weight) is prepared as described in Example 1 but using 13.5 parts L-glutamic acid in place of 12.2 parts L-aspartic acid.

[2] = Viscosity of concentrated aqueous solution; assay type: physicochemical; details: aqueous solution of sodium salt, 0.330 mol/kg, 2.0% sodium chloride; at 20° C.
Method: as §1, §2

Row | SMILES | precipitation on storage [1] | viscosity [2]
1 | O=C(O)CCC(Nc1nc(Nc2ccc(/C=C/c3ccc(Nc4nc(Nc5cc(S(=O)(=O)O)ccc5S(=O)(=O)O)nc(NC(CCC(=O)O)C(=O)O)n4)cc3S(=O)(=O)O)c(S(=O)(=O)O)c2)nc(Nc2cc(S(=O)(=O)O)ccc2S(=O)(=O)O)n1)C(=O)O (stereo not shown) [Example 2] | no signs of precipitation | 0.23-0.25 Pa.s
2 | O=C(O)CC(Nc1nc(Nc2ccc(/C=C/c3ccc(Nc4nc(Nc5cc(S(=O)(=O)O)ccc5S(=O)(=O)O)nc(NC(CC(=O)O)C(=O)O)n4)cc3S(=O)(=O)O)c(S(=O)(=O)O)c2)nc(Nc2cc(S(=O)(=O)O)ccc2S(=O)(=O)O)n1)C(=O)O (stereo not shown) [Example 1] | no signs of precipitation | 0.23-0.25 Pa.s
